Experimental findings from PubChem BioAssay AID1259411 (Chemical Carcinogenesis Research Information System (CCRIS), 2018) are described below.

Calls of active or inactive are those of the source. No rule for the calls is given here.

This data set has as its system rodent carcinogenicity bioassays, tumor incidence. The data set is described as follows: CCRIS carcinogenicity studies. Summed up:
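Archive of carcinogenicity, mutagenicity, tumor promotion and tumor inhibition results drawn from journals, NCI reports and other sources, expert-reviewed; covers 1985-2011 and is no longer updated.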

On to `Clc1ccc(C(c2ccccc2Cl)C(Cl)(Cl)Cl)cc1` (centres undefined) (tested in a mixture with another compound), for which the carcinogen call is “active; positive” (Species: MOUSE, Strain/Sex: BALB/MALE,FEMALE, Route: DIET, Dose: 0, 2, 20, 250 PPM, Dose: 0, 2, 20, 250 PPM, Tumor Site: Type of Lesion: LIVER: HEPATOCELLULAR TUMOR); “active; positive” (Species: MOUSE, Strain/Sex: CF-1/MALE,FEMALE, Route: DIET, Dose: 0, 250 PPM FOR 30 WK, Tumor Site: Type of Lesion: LIVER: HEPATOMA); “active; positive” (Species: MOUSE, Strain/Sex: CF-1, Route: DIET, Dose: 0, 2, 10, 50, 250 PPM, Dose: 0, 2, 10, 50, 250 PPM, Tumor Site: Type of Lesion: LIVER: HEPATOCELLULAR TUMOR).

For `Cc1ccc(/C(=C\CN2CCCC2)c2ccccn2)cc1`, the carcinogen call runs as follows: (Species: MOUSE, Strain/Sex: B6C3F1/FEMALE, Route: ORAL, Dose: 0, 500, 2000, 4000 PPM IN DIET FOR 2 YR (STUDY DURATION: 2 YR), Dose: 0, 500, 2000, 4000 PPM IN DIET FOR 2 YR (STUDY DURATION: 2 YR)) “inactive; negative”; (Species: MOUSE, Strain/Sex: B6C3F1/MALE, Route: ORAL, Dose: 0, 500, 2000, 4000 PPM IN DIET FOR 2 YR (STUDY DURATION: 2 YR), Dose: 0, 500, 2000, 4000 PPM IN DIET FOR 2 YR (STUDY DURATION: 2 YR)) “inactive; negative”; (Species: RAT, Strain/Sex: F344/FEMALE, Route: ORAL, Dose: 0, 250, 1000, 2000 PPM IN DIET FOR 103 WK (STUDY DURATION: 104 WK), Dose: 0, 250, 1000, 2000 PPM IN DIET FOR 103 WK (STUDY DURATION: 104 WK)) “inactive; negative”; (Species: RAT, Strain/Sex: F344/MALE, Route: ORAL, Dose: 0, 250, 1000, 2000 PPM IN DIET FOR 103 WK (STUDY DURATION: 104 WK), Dose: 0, 250, 1000, 2000 PPM IN DIET FOR 103 WK (STUDY DURATION: 104 WK)) “inactive; negative”.

Take `CCCCOC(=O)[C@@H](C)Oc1ccc(Oc2ccc(C(F)(F)F)cn2)cc1`: the carcinogen call was “inactive; negative” (Species: Hamster, Strain/Sex: Syrian golden/Female (51/Group), Route: Oral, Dose: 0, 200, 750, 3000 ppm of 91.6% fluazifop-o-butyl (0; 10.6; 40; 158 mg/kg/day) in diet for 81-83 wks, study duration 83 w, Dose: 0, 200, 750, 3000 ppm of 91.6% fluazifop-o-butyl (0; 10.6; 40; 158 mg/kg/day) in diet for 81-83 wks, study duration 83 w); “inactive; negative” (Species: Hamster, Strain/Sex: Syrian golden/Male (51/Group), Route: Oral, Dose: 0, 200, 750, 3000 ppm of 91.6% fluazifop-o-butyl (0; 11.1; 42; 174 mg/kg/day) in diet for 81-83 wks, study duration 83 w, Dose: 0, 200, 750, 3000 ppm of 91.6% fluazifop-o-butyl (0; 11.1; 42; 174 mg/kg/day) in diet for 81-83 wks, study duration 83 w); “inactive; negative” (Species: Rat, Strain/Sex: Wistar/Female (60/Group), Route: Oral, Dose: 0, 2, 10, 80, 250 ppm of 94.8% fluazifop-o-butyl (0; 0.11; 0.53; 4.3; 13.4 mg/kg/day) in diet for 2 yrs, study duration, Dose: 0, 2, 10, 80, 250 ppm of 94.8% fluazifop-o-butyl (0; 0.11; 0.53; 4.3; 13.4 mg/kg/day) in diet for 2 yrs, study duration); “inactive; negative” (Species: Rat, Strain/Sex: Wistar/Male (60/Group), Route: Oral, Dose: 0, 2, 10, 80, 250 ppm of 94.8% fluazifop-o-butyl (0; 0.08; 0.41; 3.3; 10.2 mg/kg/day) in diet for 2 yrs, study duration, Dose: 0, 2, 10, 80, 250 ppm of 94.8% fluazifop-o-butyl (0; 0.08; 0.41; 3.3; 10.2 mg/kg/day) in diet for 2 yrs, study duration).

On to `C[C@]12CC[C@H]3[C@@H](CCC4=CC(=O)CC[C@@]43C)[C@@H]1CC[C@@H]2O`, for which the carcinogen call is “active; positive” (Species: MOUSE, Route: SUBCUTANEOUS IMPLANT, Tumor Site: Type of Lesion: MAMMARY GLAND, VAGINA) and “active; positive” (Species: MOUSE, Route: SUBCUTANEOUS, Tumor Site: Type of Lesion: GENITAL TRACT).

On to `Clc1ccc(-c2ccc(Cl)c(Cl)c2Cl)c(Cl)c1Cl`, for which the carcinogen call (Species: RAT, Strain/Sex: SHERMAN/FEMALE, Route: ORAL, Dose: 100 MG/KG IN DIET, Tumor Site: Type of Lesion: LIVER: NEOPLASTIC NODULE, HEPATOCELLULAR CARCINOMA) was “active; positive”; the carcinogen call (Species: RAT, Strain/Sex: SPRAGUE-DAWLEY/FEMALE, Route: ORAL, Dose: 0, 25, 50, 100 PPM IN DIET FOR THE DURATION OF STUDY (STUDY DURATION: 24 MO), Dose: 0, 25, 50, 100 PPM IN DIET FOR THE DURATION OF STUDY (STUDY DURATION: 24 MO), Tumor Site: Type of Lesion: LIVER: TUMOR) is “active; positive”; the carcinogen call (Species: RAT, Strain/Sex: SPRAGUE-DAWLEY/FEMALE, Route: ORAL, Dose: 0, 100 PPM IN DIET FOR 16 MO AND 50 PPM FOR AN ADDITIONAL 8 MO FOLLOWED BY CONTROL DIET FOR 5 MO (STUDY DURATION: 29 MO), Tumor Site: Type of Lesion: LIVER: TRABECULAR CARCINOMA, ADENOCARCINOMA) is “active; positive”; the carcinogen call (Species: RAT, Strain/Sex: SPRAGUE-DAWLEY/MALE, Route: ORAL, Dose: 0, 25, 50, 100 PPM IN DIET FOR THE DURATION OF STUDY (STUDY DURATION: 24 MO), Dose: 0, 25, 50, 100 PPM IN DIET FOR THE DURATION OF STUDY (STUDY DURATION: 24 MO), Tumor Site: Type of Lesion: THYROID GLAND: ADENOMA OR CARCINOMA, LIVER: TUMOR) was “active; positive”; the carcinogen call (Species: RAT, Strain/Sex: SPRAGUE-DAWLEY/MALE, Route: ORAL, Dose: 0, 100 PPM IN DIET FOR 16 MO AND 50 PPM FOR AN ADDITIONAL 8 MO FOLLOWED BY CONTROL DIET FOR 5 MO (STUDY DURATION: 29 MO)) was “inactive; negative”; the carcinogen call (Species: RAT, Strain/Sex: WISTAR/MALE, Route: ORAL, Dose: 0, 50, 100 PPM IN A 10% PROTEIN DIET FOR 4 MO (STUDY DURATION: 4 MO), Dose: 0, 50, 100 PPM IN A 10% PROTEIN DIET FOR 4 MO (STUDY DURATION: 4 MO), Tumor Site: Type of Lesion: THYMUS: NEOPLASM, SPLEEN: NEOPLASM) is “active; positive”.

Take `CCOC(=O)C(O)(c1ccc(Cl)cc1)c1ccc(Cl)cc1`: the carcinogen call is, setting by setting: (Species: MOUSE, Strain/Sex: B6C3F1/FEMALE, Route: ORAL, Dose: 0, 3200, 5908 PPM IN DIET FOR 78 WK (STUDY DURATION: 90-91 WK), Dose: 0, 3200, 5908 PPM IN DIET FOR 78 WK (STUDY DURATION: 90-91 WK), Tumor Site: Type of Lesion: LIVER: HEPATOCELLULAR CARCINOMA) “active; positive”; (Species: MOUSE, Strain/Sex: B6C3F1/MALE, Route: ORAL, Dose: 0, 4231, 7846 PPM IN DIET FOR 78 WK (STUDY DURATION: 90-91 WK), Dose: 0, 4231, 7846 PPM IN DIET FOR 78 WK (STUDY DURATION: 90-91 WK), Tumor Site: Type of Lesion: LIVER: HEPATOCELLULAR CARCINOMA) “active; positive”; (Species: RAT, Strain/Sex: OSBORNE-MENDEL/FEMALE, Route: ORAL, Dose: 0, 1175, 2229 PPM IN DIET FOR 78 WK (STUDY DURATION: 110-111 WK), Dose: 0, 1175, 2229 PPM IN DIET FOR 78 WK (STUDY DURATION: 110-111 WK), Tumor Site: Type of Lesion: ADRENAL GLAND: CORTICAL ADENOMA) “equivocal”; (Species: RAT, Strain/Sex: OSBORNE-MENDEL/MALE, Route: ORAL, Dose: 0, 1600, 2995 PPM IN DIET FOR 78 WK (STUDY DURATION: 110-111 WK), Dose: 0, 1600, 2995 PPM IN DIET FOR 78 WK (STUDY DURATION: 110-111 WK), Tumor Site: Type of Lesion: ADRENAL GLAND: CORTICAL ADENOMA) “equivocal”.

Take `CC(=O)Nc1ccc(CC(=O)O)cc1`: the carcinogen call runs as follows: (Species: MOUSE, Strain/Sex: B6C3F1/FEMALE, Route: ORAL, Dose: 0;300, 1000, 3000 MG/KG IN DIET FOR 78 WK (STUDY DURATION: 78 WK), Dose: 0;300, 1000, 3000 MG/KG IN DIET FOR 78 WK (STUDY DURATION: 78 WK)) “inactive; negative”; (Species: MOUSE, Strain/Sex: B6C3F1/MALE, Route: ORAL, Dose: 0, 300, 1000, 3000 MG/KG IN DIET FOR 78 WK (STUDY DURATION: 78 WK), Dose: 0, 300, 1000, 3000 MG/KG IN DIET FOR 78 WK (STUDY DURATION: 78 WK)) “inactive; negative”; (Species: RAT, Strain/Sex: F344/FEMALE, Route: ORAL, Dose: 0, 300, 1000, 3000 MG/KG/D IN DIET FOR 104 WK (STUDY DURATION: 104 WK), Dose: 0, 300, 1000, 3000 MG/KG/D IN DIET FOR 104 WK (STUDY DURATION: 104 WK)) “inactive; negative”; (Species: RAT, Strain/Sex: F344/MALE, Route: ORAL, Dose: 0, 300, 1000, 3000 MG/KG/D IN DIET FOR 104 WK (STUDY DURATION: 104 WK), Dose: 0, 300, 1000, 3000 MG/KG/D IN DIET FOR 104 WK (STUDY DURATION: 104 WK)) “inactive; negative”.

As for `N#[N+]c1ccc(CO)cc1`, the carcinogen call is “active; positive” (Species: MOUSE, Strain/Sex: SWISS/FEMALE, Route: SUBCUTANEOUS, Dose: 0, 50 UG/G BW IN 0.01 ML 0.9% SALINE 1/WK FOR 26 WK (STUDY DURATION: 140 WK), Tumor Site: Type of Lesion: SUBCUTIS: TUMOR, SKIN: TUMOR) and “active; positive” (Species: MOUSE, Strain/Sex: SWISS/MALE, Route: SUBCUTANEOUS, Dose: 0, 50 UG/G BW IN 0.01 ML 0.9% SALINE 1/WK FOR 26 WK (STUDY DURATION: 140 WK), Tumor Site: Type of Lesion: SUBCUTIS: TUMOR, SKIN: TUMOR).
